Results published in US9283163B2, “Collagen stimulators and their use in the treatment of skin” (Avon Products, Inc., priority 2012, dated 2016).

Test system: Normal Human dermal fibroblasts
Assay: Stimulation of collagen production: Procollagen Type-I C-Peptide EIA on conditioned media
Assay type: cell-based
Conditions: 0.0005% compound, 48 hours, p<0.05
Description: Cell Treatment: Normal Human dermal fibroblasts were grown in DMEM (Mediatech; cat. #: 15-013-CV) containing 10% Fetal Bovine Serum (Perbio; cat. #: SH30070.03), Penicillin/Streptomycin (Mediatech, Cat #30-001-C1), L-Glutamine (Mediatech; cat. #: 25-005-CI) at 37° C. and 10% CO2. Cells were stripped of serum overnight, followed by treatment with the compound of Formula I(b) (0.0005%) or vehicle (DMSO), in the absence of serum for 48 hours.
Reading was measured at 450 nm using a spectrophotometer.
Human dermal fibroblasts treated with 0.0005% the compound of Formula I(b) for 48 hours were analyzed by ELISA for expression levels of pro-collagen. […] All values are statistically significant at p<0.05.

Q: Which results are given for `COc1ccc(Cc2nc(=O)c(CCC(=O)N3CCC(C)CC3)n[nH]2)cc1OC` [Formula I(b)]?
A: pro-collagen, relative to control, vehicle treated cells (ELISA, result in words): significant increase; Procollagen (serum-free, procollagen in conditioned media by ELISA, vehicle (DMSO) control = 100%): 146%
